From patent US12421249B2, “Inhibitors of APOL1 and methods of using same” (Vertex Pharmaceuticals Incorporated, priority 2020, dated 2025)

Target: T1, APOL1 G1 (Homo sapiens, UniProt O14791, I384M/S342G)
T1 sequence (O14791 28-398 S342G/I384M): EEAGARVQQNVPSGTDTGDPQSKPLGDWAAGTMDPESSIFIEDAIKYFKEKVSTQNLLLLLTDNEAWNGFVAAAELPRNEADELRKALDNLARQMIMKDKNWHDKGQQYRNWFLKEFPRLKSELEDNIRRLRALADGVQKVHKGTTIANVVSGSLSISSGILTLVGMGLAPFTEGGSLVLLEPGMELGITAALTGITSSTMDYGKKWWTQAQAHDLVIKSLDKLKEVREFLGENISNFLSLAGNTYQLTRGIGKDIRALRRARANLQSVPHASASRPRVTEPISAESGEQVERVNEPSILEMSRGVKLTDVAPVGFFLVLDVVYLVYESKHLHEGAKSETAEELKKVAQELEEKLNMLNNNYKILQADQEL
Assay: MultiTox-Fluor Multiplex Cytotoxicity Assay in tet-inducible APOL1 G1 T-REx-HEK293 cells (clone G1 DC3.25)
Assay type: cell-based
Set-up: expressed in transfected cells; host or cells: T-REx HEK293, pAAVS1-Puro-APOL1 G1, clone G1 DC3.25
Settings: Multi-Tox Assay; IP50 = IC50 for cell proliferation; APOL1 variant cell line not given
Protocol: The MultiTox-Fluor Multiplex Cytotoxicity Assay is a single-reagent-addition, homogeneous, fluorescence assay that measures the number of live and dead cells simultaneously in culture wells. The assay measures cell viability and cytotoxicity by detecting two distinct protease activities. The live-cell protease activity is restricted to intact viable cells and is measured using a fluorogenic, cell-permeant peptide glycyl-phenylalanylamino fluorocoumarin (GF-AFC) substrate. The substrate enters intact cells, where it is cleaved to generate a fluorescent signal proportional to the number of living cells. […] A second, cell-impermeant, fluorogenic peptide substrate (bis-AAF-R110 Substrate) is used to measure dead-cell protease that has been released from cells that have lost membrane integrity. A ratio of dead to live cells is used to normalize data.
Briefly, the tet-inducible transgenic APOL1 T-REx-HEK293 cell lines were incubated with 50 ng/mL tet to induce APOL1 in the presence of 3-(2-(4-fluorophenyl)-1H-indol-3-yl)-N-((3S,4R)-4-hydroxy-2-oxopyrrolidin-3-yl)propenamide at […], 0.0045, 0.0015, 0.0005 μM in duplicate for 24 hours in a humidified 37° C. incubator. The MultiTox reagent was added to each well and placed back in the incubator for an additional 30 minutes. The plate was read on the EnVision plate reader. A ratio of dead to live cells was used to normalize, and data was imported, analyzed and fit using Genedata Screener (Basel, Switzerland) software. Data was normalized using percent of control, no tet (100% viability), and 50 ng/mL tet treated (0% viability), and fit using Smart Fit. The reagents, methods, and complete protocol for the MultiTox assay are described below.
Human embryonic kidney (HEK293) cell lines containing a tet-inducible expression system (T-REx™; Invitrogen, Carlsbad, CA) and Adeno-associated virus site 1 pAAVS1-Puro-APOL1 G0 or pAAVS1-Puro-APOL1 G1 or pAAVS1-Puro-APOL1 G2 Clones G0 DC2.13, G1 DC3.25, and G2 DC4.44 were grown in a T-225 flask at ˜90% confluency in cell growth media (DMEM, 10% Tet-free FBS, 2 mM L-glutamine, 100 Units/mL penicillin-streptomycin, 5 μg/mL blasticidin S HCl, 1 μg/mL puromycin dihydrochloride). Cells were washed with DPBS and then trypsinized to dissociate from the flask. Media was used to quench the trypsin, cells were then pelleted at 200 g and resuspended in fresh cell assay media (DMEM, 2% Tet-free FBS, 2 mM L-glutamine, 100 Units/mL penicillin-streptomycin). Cells were counted and diluted to 1.17×10^6 cells/mL. 20 μL of cells (23,400/well) were dispensed to every well of a 384-well Poly-D-Lysine coated plate using the Multidrop dispenser. The plates were then incubated at room temperature for one hour.
Tetracycline is needed to induce APOL1 expression. 1 mg/mL tet stock in water was diluted to 250 ng/mL (5×) in cell assay media. 60 μL of cell assay media (no tet control) was dispensed in columns 1 and 24, and 60 μL of 5× tet was dispensed in 384-PP-round bottom plate in columns 2 to 23 with the Multidrop dispenser.
Assay ready plates from the Global Compound Archive were ordered using template 384_APOL1Cell_DR10n2_50 μM_v3. Compounds were dispensed at 200 nL in DMSO. The final top concentration was 10 μM with a 10 point 3-fold dilution in duplicate in the MultiTox assay.
20 μL were transferred from the 5× tet plate to the ARP and mixed, then 5 μL of 5× tet and the compounds were transferred to the cell plate and mixed using the Bravo. The cell plate was placed in the humidified 37° C. 5% CO2 incubator for 24 hours.
The MultiTox-Fluor Multiplex Cytotoxicity Assay was performed in accordance with the manufacturer's protocol. After cells were incubated with tet and compound for 24 hours, 25 μL of 1× MultiTox reagent was added to each well using the Multidrop dispenser; the plates were placed on a plate shaker (600 rpm) for 2 minutes, then centrifuged briefly and placed back in the 37° C. incubator for 30 minutes. […]

How did the IC50 turn out when `[2H]C1([2H])O[C@@]2(C[C@@H](c3cn(C)nn3)N[C@@H](C)C2)c2sc(Cl)cc2[C@]1([2H])O` [Compound 385, (2S,4S,4′S,6S)-2′-chloro-4′,5′,5′-trideuterio-2-methyl-6-(1-methyltriazol-4-yl)spiro[piperidine-4,7′-thieno[2,3-c]pyran]-4′-ol] was run?
The IC50 was < 0.05 µM.
